Data on 2 molecules can be found in patent publication US12121521B2, “Uses of salt-inducible kinase (SIK) inhibitors for treating osteoporosis” (The General Hospital Corporation, priority 2016, dated 2024).

“Also recorded” adds a separate entry of the source.

One assay concerns Ocy454 cells. Description: cAMP radioimmunoassay. Format: cell-based, mouse. As to conditions: 20 minutes; FIG. 14B. The procedure:
Cells, in 96 well plates, were treated with indicated ligands for 20 minutes at room temperature in the presence of the phosphodiesterase inhibitor 3-isobutyl-1-methylxanthine (IBMX, Sigma I5879, 2 mM). The medium was then removed and cells were lysed in 50 mM HCl and transferred to −80C. Thawed lysates were diluted 1:5 with dH2O, and an 10 μl aliquot was assessed for cAMP content by radioimmunoassay using ^125I-cAMP analog as a tracer and unlabeled cAMP to generate a standard curve.

A further assay relates to male C57B/6 mice. Description: YKL-05-099 dose range once daily for two weeks: histomorphometry. Format: in vivo, mouse. As to conditions: 18 mg/kg once daily. How it is done: Right tibia from 8-week-old mice were subjected to bone histomorphometric analysis. The mice were injected 20 mg/kg body weight of calcein and 40 mg/kg body weight of demeclocycline on 7 and 2 days before necropsy, respectively. The tibia was dissected and fixed in 70% ethanol for 3 days. Fixed bones were dehydrated in graded ethanol, then infiltrated and embedded in methylmethacrylate without demineralization. Undecalcified 4-μm-thick longitudinal sections were obtained using microtome (RM2255, Leica Biosystems., IL, USA). Sections were left unstained for dynamic parameters measurement, and consecutive sections were stained with tartrate-resistant acid phosphatase and counterstained with toluidine blue for measurement of cellular parameters. A standard dynamic bone histomorphometric analysis of the tibial metaphysis was done using the Osteomeasure analyzing system (Osteometrics Inc., Decatur, GA, USA). Measurements were performed in the area of secondary spongiosa, 200 μm below the proximal growth plate. The observer was blinded to the experimental genotype at the time of measurement. The structural, dynamic and cellular parameters were calculated and expressed according to the standardized nomenclature (75).
Static and dynamic histomorphometry was performed (see FIG. 24). […] Effects on osteoclast differentiation were assessed by TRAP secretion assays and counting multi-nucleated TRAP-positive cells (see FIG. 26). M-CSF signaling in primary macrophages, was assessed by immunoblotting for MCSF-receptor Y723 phosphorylation and ERK1/2 phosphorylation (see FIG. 27).

The test system of a further assay is male mice. As to the kind of experiment: YKL-05-099 once daily for 2 weeks: bone RNA, static and dynamic histomorphometry. Format: in vivo, mouse. As to conditions: 6 mg/kg once daily i.p. How it is done:
Whole cell extracts were generated, followed by immunoblotting. […] RNA was prepared, and gene expression analyzed by RT-qPCR. […] 2 hours later, animals were sacrificed, RNA was prepared from femurs, and gene expression analyzed by RT-qPCR. […] Animals were sacrificed 2 hours after the final dose, and RNA from femurs analyzed for the indicated genes. BGLAP encodes osteocalcin. * indicated p<0.01 versus vehicle, # indicates p<0.05 versus vehicle. (FIGS. 8E to 8K), static and dynamic histomorphometry were performed on the tibia from the same mice as in FIG. 8D. Each data point represents an individual mouse, p values for each difference are shown on the graph. (FIG. 8L) Representative photomicrograph showing increased osteoblasts on cancellous bone surfaces from YKL-05-099-treated mice.
To determine effects on bone mass and cellular composition/activity, static and dynamic histomorphometry were performed. […] Other than the observed reduction in osteoclast numbers, these findings are quite similar to the effects of once daily PTH treatment.
All animals were housed in the Center for Comparative Medicine at the Massachusetts General Hospital, and all experiments were approved by the hospital's Subcommittee on Research Animal Care. HDAC5-null mice (70) and HDAC4 f/f mice (71) were generously provided by Dr. Eric Olson (University of Texas Southwestern Medical Center, Dallas, TX) and were backcrossed to C57B/6 mice for at least 6 generations. DMP1-Cre mice (27) were generously provided by Dr. Jian (Jerry) Feng (Texas A&M University, Baylor College of Dentistry, Dallas, TX). “DKO” HDAC4/5 mice were of the following genotype: HDAC4f/f; HDAC5−/−; DMP1-Cre. SIK2 f/f mice were as described (40), and were bred to DMP1-Cre animals to generate SIK2^OcyKO mice. ES cells carrying the targeted SOST allele Sost^tm1(KOMP)Vleg, in which the SOST coding sequence has been replaced by LacZ and floxed Neo cassette, were obtained from the Knockout Mouse Project (KOMP) Repository. Clone VG10069-BE8 was injected into blastocysts, and the resulting SOST+/− mice were crossed to HDAC5 mutant animals to generate compound heterozygous mice. In all instances, skeletal phenotypes were evaluated in 8 week-old sex-matched littermates. For acute effects of PTH on bone gene expression, animals were treated with PTH (1-34, 300 μg/kg, subcutaneous administration) and then sacrificed 90 minutes later. For acute effects of YKL-05-093 on bone gene expression, animals were treated with the indicated doses of compound (dissolved in PBS+25 mM HCl) or solvent via intraperitoneal injections, and sacrificed 2 hours later. […] For in vivo sclerostin antibody treatment, mice were treated twice weekly with sclerostin antibody (50 mg/kg, subcutaneous administration, generously provided by Dr. Michael Ominsky, Amgen) for 6 weeks. Power calculations were performed based on pilot experiments in which standard deviations and magnitudes of effect sizes were estimated. For experiments in which mice were treated with either vehicle or PTH (or YKL-05-093), mice were assigned to alternating treatment groups in consecutive order.
Right tibia from 8-week-old mice were subjected to bone histomorphometric analysis. The mice were injected 20 mg/kg body weight of calcein and 40 mg/kg body weight of demeclocycline on 7 and 2 days before necropsy, respectively. The tibia was dissected and fixed in 70% ethanol for 3 days. Fixed bones were dehydrated in graded ethanol, then infiltrated and embedded in methylmethacrylate without demineralization. Undecalcified 4-μm-thick longitudinal sections were obtained using microtome (RM2255, Leica Biosystems., IL, USA). Sections were left unstained for dynamic parameters measurement, and consecutive sections were stained with tartrate-resistant acid phosphatase and counterstained with toluidine blue for measurement of cellular parameters. […]

Regarding `COc1ccc(N2C(=O)N(c3c(C)cccc3C)Cc3cnc(Nc4ccc(C5CCN(C)CC5)c(OC)c4)nc32)c(OC)c1` [YKL-05-093], the cAMP levels entry with Ocy454 cells is on record as “does not induce cAMP generation; also recorded: without increasing cAMP levels”.

In the assay on male C57B/6 mice (p<0.01 vs vehicle), `COc1ccc(N2C(=O)N(c3c(C)cccc3Cl)Cc3cnc(Nc4ccc(C5CCN(C)CC5)cc4OC)nc32)nc1` [YKL-05-099] had an Ob.S/BS of 16.8±1.3. For the same molecule, the trabecular bone volume in the assay on male C57B/6 mice (p<0.01 vs vehicle, in % (unit assumed)) is on record as 16.3±2.0. The molecule also came in with an Oc.S/BS in the assay on male C57B/6 mice (p<0.05 vs vehicle) of 1.59±0.4. Moreover, in the assay with male mice, the “RANKL levels in bone RNA” value is given as “increased”, the “SOST in bone RNA” value is “trend towards reduced SOST”, the bone formation rate result is “increased bone formation rate” and the cancellous bone mass entry is listed as “increased cancellous bone mass”. Further, in the assay on male mice, the matrix apposition rate entry is reported as “trend towards increased matrix apposition rate”; the mineralizing surface entry is on record as “increased mineralizing surface”; the “osteoblast marker genes (osteocalcin and COL1A1)” value is on record as “significantly increased”; the osteoblast numbers entry was “increased osteoblast numbers”. Besides, in the assay with male mice, the osteoclast numbers entry was “reduced osteoclast numbers” and the osteoid surface entry is “increased”.
